Legend:
[1] = target: PARP4 (Homo sapiens, UniProt Q9UKK3); assay: competition of probe […] photoaffinity pull-down in HeLa lysate by unlabeled olaparib ([…]), MS; type: cell-based
[2] = target: PARP1 (Homo sapiens, UniProt P09874); assay: PARP1 activity assay (Figure S6); also photoaffinity pull-down from HeLa lysate with MS and Western blot; type: biochemical
[3] = target: CDK8 (Homo sapiens, UniProt P49336); assay: photoaffinity labeling, streptavidin pull-down and MS in HeLa lysate, enriched over probe […] in two biological replicates; type: cell-based
Sequence of CDK8 (P49336 whole entry): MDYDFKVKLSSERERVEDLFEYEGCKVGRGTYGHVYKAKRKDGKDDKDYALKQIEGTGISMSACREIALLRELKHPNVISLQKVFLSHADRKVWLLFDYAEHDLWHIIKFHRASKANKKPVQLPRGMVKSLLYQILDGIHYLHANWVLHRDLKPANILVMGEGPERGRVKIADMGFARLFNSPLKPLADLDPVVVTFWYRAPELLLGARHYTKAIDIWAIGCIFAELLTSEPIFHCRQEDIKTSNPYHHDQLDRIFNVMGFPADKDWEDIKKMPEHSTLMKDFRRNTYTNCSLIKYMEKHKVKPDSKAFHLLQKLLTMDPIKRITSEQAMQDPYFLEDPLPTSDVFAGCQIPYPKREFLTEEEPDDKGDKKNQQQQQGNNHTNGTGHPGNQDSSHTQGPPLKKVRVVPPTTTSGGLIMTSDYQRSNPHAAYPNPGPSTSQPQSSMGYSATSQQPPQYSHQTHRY

Sequence of PARP4 (Q9UKK3 whole entry): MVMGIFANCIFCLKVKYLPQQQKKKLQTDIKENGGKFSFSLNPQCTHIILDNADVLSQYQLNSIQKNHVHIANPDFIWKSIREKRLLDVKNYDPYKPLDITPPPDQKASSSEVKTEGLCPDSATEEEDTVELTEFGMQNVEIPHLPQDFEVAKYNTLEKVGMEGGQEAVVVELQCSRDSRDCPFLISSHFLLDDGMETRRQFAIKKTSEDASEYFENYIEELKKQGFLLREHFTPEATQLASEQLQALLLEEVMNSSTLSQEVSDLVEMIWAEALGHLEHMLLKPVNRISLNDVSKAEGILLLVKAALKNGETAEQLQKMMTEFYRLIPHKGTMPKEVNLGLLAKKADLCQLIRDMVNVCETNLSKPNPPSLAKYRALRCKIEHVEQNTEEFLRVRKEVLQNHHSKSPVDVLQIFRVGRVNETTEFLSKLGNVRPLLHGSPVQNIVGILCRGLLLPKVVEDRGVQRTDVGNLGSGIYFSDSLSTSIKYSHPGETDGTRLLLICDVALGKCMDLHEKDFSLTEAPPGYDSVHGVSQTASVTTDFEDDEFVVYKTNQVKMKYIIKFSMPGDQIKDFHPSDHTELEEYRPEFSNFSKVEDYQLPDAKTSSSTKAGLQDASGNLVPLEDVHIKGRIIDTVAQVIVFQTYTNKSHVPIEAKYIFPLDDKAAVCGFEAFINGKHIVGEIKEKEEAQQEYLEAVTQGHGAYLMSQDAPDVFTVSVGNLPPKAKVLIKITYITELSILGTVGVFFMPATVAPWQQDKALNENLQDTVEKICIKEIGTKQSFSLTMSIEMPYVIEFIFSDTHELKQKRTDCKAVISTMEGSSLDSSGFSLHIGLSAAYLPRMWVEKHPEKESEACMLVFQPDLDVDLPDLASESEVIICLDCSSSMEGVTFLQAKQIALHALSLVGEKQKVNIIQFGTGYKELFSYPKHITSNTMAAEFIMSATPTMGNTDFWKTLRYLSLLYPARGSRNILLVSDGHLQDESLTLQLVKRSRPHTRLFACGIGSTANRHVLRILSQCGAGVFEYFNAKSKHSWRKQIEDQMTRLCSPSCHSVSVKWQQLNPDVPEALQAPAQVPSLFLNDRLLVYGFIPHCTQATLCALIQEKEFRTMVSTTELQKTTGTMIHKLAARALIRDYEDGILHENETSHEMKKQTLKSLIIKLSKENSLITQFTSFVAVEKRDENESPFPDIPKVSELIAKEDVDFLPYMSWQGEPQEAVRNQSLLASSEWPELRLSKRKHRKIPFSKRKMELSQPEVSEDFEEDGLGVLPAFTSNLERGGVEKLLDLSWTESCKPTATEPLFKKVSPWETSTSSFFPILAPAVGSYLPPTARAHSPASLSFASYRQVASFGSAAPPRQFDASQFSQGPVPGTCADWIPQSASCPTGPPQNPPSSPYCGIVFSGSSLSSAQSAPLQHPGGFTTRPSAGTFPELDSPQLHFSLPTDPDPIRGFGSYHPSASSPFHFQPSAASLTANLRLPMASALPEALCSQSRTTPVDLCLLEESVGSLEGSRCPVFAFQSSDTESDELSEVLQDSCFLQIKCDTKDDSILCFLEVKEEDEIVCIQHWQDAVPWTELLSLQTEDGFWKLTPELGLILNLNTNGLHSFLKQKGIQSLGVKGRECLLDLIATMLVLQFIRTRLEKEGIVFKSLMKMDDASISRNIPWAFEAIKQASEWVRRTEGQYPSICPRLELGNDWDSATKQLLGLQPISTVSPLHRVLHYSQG
Sequence of PARP1 (P09874 2-1014): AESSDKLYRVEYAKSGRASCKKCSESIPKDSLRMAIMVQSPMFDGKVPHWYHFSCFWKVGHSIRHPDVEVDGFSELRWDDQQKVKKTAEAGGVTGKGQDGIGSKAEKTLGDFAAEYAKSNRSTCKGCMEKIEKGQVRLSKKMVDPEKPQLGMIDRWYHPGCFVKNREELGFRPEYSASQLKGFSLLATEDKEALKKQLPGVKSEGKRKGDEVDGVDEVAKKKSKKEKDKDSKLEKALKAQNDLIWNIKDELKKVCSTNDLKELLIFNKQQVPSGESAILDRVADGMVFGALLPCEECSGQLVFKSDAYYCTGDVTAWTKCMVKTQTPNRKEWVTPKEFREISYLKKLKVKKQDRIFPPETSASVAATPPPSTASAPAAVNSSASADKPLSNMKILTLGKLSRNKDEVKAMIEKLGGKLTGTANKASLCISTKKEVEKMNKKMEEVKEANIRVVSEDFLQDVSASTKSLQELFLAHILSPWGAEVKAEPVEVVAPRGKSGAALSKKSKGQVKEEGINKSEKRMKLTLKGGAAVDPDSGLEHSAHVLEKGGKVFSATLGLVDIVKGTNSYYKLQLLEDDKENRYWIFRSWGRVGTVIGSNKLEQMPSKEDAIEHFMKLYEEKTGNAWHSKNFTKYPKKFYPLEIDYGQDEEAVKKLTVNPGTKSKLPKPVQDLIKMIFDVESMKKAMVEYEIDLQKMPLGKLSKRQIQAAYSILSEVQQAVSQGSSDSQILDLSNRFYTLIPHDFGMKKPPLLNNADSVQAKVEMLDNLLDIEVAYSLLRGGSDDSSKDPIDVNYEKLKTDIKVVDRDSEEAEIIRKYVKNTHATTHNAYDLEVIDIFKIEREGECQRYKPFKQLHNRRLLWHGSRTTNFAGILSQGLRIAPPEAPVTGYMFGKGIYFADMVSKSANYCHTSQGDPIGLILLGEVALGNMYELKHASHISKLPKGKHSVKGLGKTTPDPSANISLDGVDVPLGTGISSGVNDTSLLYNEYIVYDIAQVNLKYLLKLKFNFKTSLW

IC50 [2] [µM]	Compound	competition of probe 4 photoaffinity pull-down in HeLa lysate by unlabeled olapa [1]	photoaffinity labeling, streptavidin pull-down and MS in HeLa lysate, enriched o [3]
	O=C(c1cc(Cc2n[nH]c(=O)c3ccccc23)ccc1F)N1CCN(C(=O)C2CC2)CC1 [olaparib]	This concentration‐dependent competition demonstrates the specificity of these interactions for the olaparib pharmacophore	
3.8	O=C(CCCC[C@@H]1SC[C@@H]2NC(=O)N[C@@H]21)NCCOCCOCCOCCn1cc(CCCCC2(CCC(=O)N3CCN(C(=O)c4cc(Cc5n[nH]c(=O)c6ccccc56)ccc4F)CC3)N=N2)nn1 [compound 4, probe 4]		CDK8 and its paralogue CDK19, both transcriptional regulators, were identified in our screening as direct olaparib interactors
